Where “and” joins values, the source holds several entries; their conditions need not be identical. Identical values can stand only once. After the bases stand the sugars from the 5' end (letter, count) and the backbone: PS all phosphorothioate, else s phosphorothioate and o phosphodiester by linkage. Methylation of C is not given here. e = 2'-O-(2-methoxyethyl) (MOE); d = 2'-deoxy (DNA)
Molecular target: DGAT2
Settings: ASO

Sequence	target mRNA inhibition (HepG2, 2.5 µM)	target mRNA inhibition (HepG2, 10 µM)	target mRNA inhibition (HepG2, 0.12 µM) [%]	target mRNA inhibition (HepG2, 20 µM) [%]
GCTGAGTCTGTGCTGCA (sugars e3 d10 e4, PS)	56%	85%		
TCTCACATGCCTGAGGGCAG (sugars e5 d10 e5, PS)	70%	82%		
CTGCATAGCTGAGCAAATCC (sugars e5 d10 e5, PS)	52%	70%		
GCACAGCGATGAGCCAGCAA (sugars e5 d10 e5, PS)	50% and 45% and 69%	92% and 89% and 94%		
AGGACAGGGCAGACACACCT (sugars e5 d10 e5, PS)			44	
CCTGGTGGTCAGCAGGTTGT (sugars e5 d10 e5, PS)			64	
ATCCGGACTGAATGTCACCT (sugars e5 d10 e5, PS)	80% and 72%	84% and 91%		
CTCAGAGACTCAGCCGCACC (sugars e2 d13 e5, PS)			43	
ACAGGAAGCCTGGTGACTGC (sugars e5 d10 e5, PS)			54	
AGCCTGGACAAGTCCTGCCC (sugars e2 d13 e5, PS)			75	
GTGTACTTTGAGCATCCCCA (sugars e5 d10 e5, PS)	63% and 62%	88% and 87%		
TACAAAAGTCTGACATGGTG (sugars e5 d10 e5, PS)			40	
CTGGACAAGTCCTGCCCATC (sugars e5 d10 e5, PS)			77	
ATGAGGGTCTTCATGGCTGA (sugars e5 d10 e5, PS)			7	
TGCTGGATCCAGTGCCCCAT (sugars e5 d10 e5, PS)			44	
TATTCATCTTTCCAGATCCG (sugars e5 d10 e5, PS)	66%	91%		
TCTGCGCGATTCACTGAGGA (sugars e5 d10 e5, PS)	64%	84%		
CAGCCTGGACAAGTCCTGCC (sugars e2 d13 e5, PS)			72	
GCAGCCTGGACAAGTCCTGC (sugars e2 d13 e5, PS)			77	
TCATTTCATAGATGAGGAGA (sugars e5 d10 e5, PS)			34	
CCAGCTGGATGGGAAAGTAG (sugars e5 d10 e5, PS)			24	
GTCAAACCTAGGTTCAGACT (sugars e5 d10 e5, PS)	68%	87%		
GGATGTGTCATTTCCCCTGG (sugars e5 d10 e5, PS)	66%	96%		

Sequence	target mRNA inhibition (HepG2, 2.5 µM)	target mRNA inhibition (HepG2, 10 µM)	target mRNA inhibition (HepG2, 0.12 µM) [%]	target mRNA inhibition (HepG2, 20 µM) [%]
AAGGAAAACTTAGGCATGCT (sugars e5 d10 e5, PS)	63%	80%		
CCCACTGGAGCACTGAGATG (sugars e3 d14 e3, PS)			75	
ATGTATTTCTGGAACTTCTT (sugars e5 d10 e5, PS)			45	
CTTTGAAATCCAATGCACCT (sugars e5 d10 e5, PS)	65%	92%		
CTGGACAAGTCCTGCCCATC (sugars e2 d13 e5, PS)			58	
TTCTGTGGCCTCTGTGCTGA (sugars e5 d10 e5, PS)			25	
TAGCATTGCCACTCCCATTC (sugars e3 d14 e3, PS)			68	
CTGTGAGGCCAAGGACAGAG (sugars e5 d10 e5, PS)	50%	81%		
CCCATCTCCCAGACCCCTCG (sugars e5 d10 e5, PS)			12	
CCCAGATTTAGCCACCACCT (sugars e5 d10 e5, PS)	56%	72%		
GGAGCTCAGAGACTCAGCCG (sugars e3 d14 e3, PS)	17%	53%	81	25
CCAGTTTCGGACCCACTGTG (sugars e5 d10 e5, PS)	28%	31%	83	65
CCTCCTTAGCTTTAATCCAG (sugars e5 d10 e5, PS)	43%	82%		
GTTGGGCAGTCACCATTTGC (sugars e5 d10 e5, PS)	21%	58%		
CCAACTCTCAGCTACTCCCC (sugars e5 d10 e5, PS)	95%	79%		
GGGAAGGATACCGCCAATGA (sugars e5 d10 e5, PS)			57	
CAGGTAGAGTTCTATTGCTT (sugars e5 d10 e5, PS)	68% and 55%	89% and 82%		
CAAAAACATGACAGCCAGGG (sugars e5 d10 e5, PS)	85% and 75%	96% and 90%		
TGGTCAGCAGGTTGTGTGTC (sugars e3 d14 e3, PS)			57	
TGGCTGGGAGGAGTCCAGCA (sugars e5 d10 e5, PS)			10	
CAGTGCTTTCTAAGTACCCT (sugars e5 d10 e5, PS)	68% and 69%	91% and 86%		
CATTGCCACTCCCATTCTTT (sugars e3 d14 e3, PS)			46	

Reference: the OligoGym collection
